This passage reports IC50 results from patent publication US12247011B2, “Selective inhibitors of NLRP3 inflammasome” (NodThera Limited, priority 2017, dated 2025).

For the experiment, the system named is IL-1β release upon NLRP3 activation in peripheral blood mononuclear cells (PBMC). The experiment in a line: PBMC IC50 Determination Assay. It counts as cell-based. As to conditions: Homo sapiens; LPS-primed PBMC, 30 min compound, stimulated with ATP (5 mM) or nigericin (10 μM) for 1 h; IL-1β ELISA; read-out: PBMC IC50. Here is the method:
PBMC IC50 Determination Assay
The compounds of the present disclosure were tested for their inhibitory activity against IL-1β release upon NLRP3 activation in peripheral blood mononuclear cells (PBMC).
Isolated cells were seeded into the wells of a 96-well plate and incubated for 3 h with lipopolysaccharide (LPS). Following medium exchange, the compounds of the present disclosure were added (a single compound per well) and the cells were incubated for 30 min. Next, the cells were stimulated either with ATP (5 mM) or nigericin (10 μM) for 1 h and the cell culture media from the wells were collected for further analysis.
The release of IL-1β into the media was determined by a quantitative detection of IL-1β in the media using an IL-1β enzyme-linked immunosorbent assay (ELISA) Ready-SET-Go!, eBioscience cat. […] Subsequently, plates were blocked with blocking buffer for 1 h at room temperature (rt) and after washing with a buffer (PBS with 0.05% Tween-20) incubated with protein standard and culture media. […] Plates were washed and incubated with HRP-streptavidin for 30 min at rt and washed again. The signal was developed after addition of 3,3,5,5-tetramethylbenzidine-peroxidase (TMB) until colour appeared and the reaction was stopped by 2 M H2SO4. A microplate spectrophotometer (BioTek) was used to detect signals with 450 nm. The detection range of IL-1β ELISA was 2-150 ng/ml.
A general note: In an ELISA, binding on a coated surface is turned into a signal by an enzyme label.
One may read the IC50 as the point on the concentration scale where inhibition reaches its midpoint. With `CCOC(=O)COC(=O)Nc1ccccc1C#N` [Compound 11, Ethyl 2-{[(2-cyanophenyl)carbamoyl]oxy}acetate], the IC50 was 1000 to 10000 nM.

On to `CCOC(=O)C(Cc1cccc(-n2cccn2)c1)OC(=O)Nc1c2c(cc3c1CCC3)CCC2` (stereo not shown) [Compound 42, Ethyl 2-{[(1,2,3,5,6,7-hexahydro-s-indacen-4-yl)carbamoyl]oxy}-3-[3-(1H-pyrazol-1-yl)phenyl]propanoate], for which the IC50 fell in the range of 100 to 1000 nM.

On to `CCOC(=O)[C@@H](Cn1cc(Cl)cn1)OC(=O)Nc1c2c(cc3c1CCC3)CCC2` [Compound 88, Ethyl (2R)-3-(4-chloro-1H-pyrazol-1-yl)-2-{[(1,2,3,5,6,7-hexahydro-s-indacen-4-yl)carbamoyl]oxy}propanoate], for which the IC50 fell in the range of 10 to 100 nM.

Take `CC(C)OC(=O)C(Cc1ncccn1)OC(=O)N[C@H]1CCCC[C@@H]1C` (relative stereo) [Compound 129, Propan-2-yl 2-{[(trans-2-methylcyclohexyl)carbamoyl]oxy}-3-(pyrimidin-2-yl)propanoate]: the IC50 lay within 1000 to 10000 nM.

Turning to `CCOC(=O)COC(=O)Nc1cc(C(F)(F)F)ccc1F` [Compound 7, Ethyl 2-({[2-fluoro-5-(trifluoromethyl)phenyl]carbamoyl}oxy)acetate], the IC50 lay within 1000 to 10000 nM.

Turning to `N#Cc1cnn(C[C@@H](OC(=O)Nc2c3c(cc4c2CCC4)CCC3)C(=O)O)c1` [Compound 82, (2R)-3-(4-cyano-1H-pyrazol-1-yl)-2-{[(1,2,3,5,6,7-hexahydro-s-indacen-4-yl)carbamoyl]oxy}propanoic acid], the IC50 lay in the range of 10 to 100 nM.

With `CCCOC(=O)COC(=O)Nc1c2c(cc3c1CCC3)CCC2` [Compound 21], the IC50 is 100 to 1000 nM.

Consider `O=C(Nc1c2c(cc3c1CCC3)CCC2)O[C@H](Cn1cccn1)C(=O)O` [Compound 61, (2R)-2-{[(1,2,3,5,6,7-hexahydro-s-indacen-4-yl)carbamoyl]oxy}-3-(1H-pyrazol-1-yl)propanoic acid], for which the IC50 is 100 to 1000 nM.

Regarding `CCOC(=O)C(Cn1cccn1)OC(=O)Nc1c(C)csc1C` (stereo not shown) [Compound 99, Ethyl 2-{[(2,4-dimethylthiophen-3-yl)carbamoyl]oxy}-3-(1H-pyrazol-1-yl)propanoate], the IC50 was in the range of 100 to 1000 nM.

Turning to `CCOC(=O)C(Cn1cccn1)OC(=O)NC1CCCCC1C` (stereo not shown) [Compound 87, Ethyl 2-{[(2-methylcyclohexyl)carbamoyl]oxy}-3-(1H-pyrazol-1-yl)propanoate], the IC50 fell in the range of 1000 to 10000 nM.

For `CCOC(=O)C(Cn1cccn1)OC(=O)Nc1c(F)ccc(F)c1F` (stereo not shown) [Compound 63, Ethyl 3-(1H-pyrazol-1-yl)-2-{[(2,3,6-trifluorophenyl)carbamoyl]oxy}propanoate], the IC50 fell in the range of 100 to 1000 nM.

Take `CCOC(=O)[C@@H](Cn1cncc1C#N)OC(=O)Nc1c2c(cc3c1CCC3)CCC2` [Compound 90, Ethyl (2R)-3-(5-cyano-1H-imidazol-1-yl)-2-{[(1,2,3,5,6,7-hexahydro-s-indacen-4-yl)carbamoyl]oxy}propanoate]: the IC50 is 1000 to 10000 nM.

As to `CCOC(=O)C(Cc1cccnn1)OC(=O)Nc1c2c(cc3c1CCC3)CCC2` (stereo not shown) [Compound 62, Ethyl 2-{[(1,2,3,5,6,7-hexahydro-s-indacen-4-yl)carbamoyl]oxy}-3-(pyridazin-3-yl)propanoate], the IC50 was 100 to 1000 nM.

As to `N#Cc1cnn(C[C@@H](OC(=O)Nc2c3c(cc4c2CCC4)CCC3)C(=O)OC2CCCC2)c1` [Compound 113, Cyclopentyl (2R)-3-(4-cyano-1H-pyrazol-1-yl)-2-{[(1,2,3,5,6,7-hexahydro-s-indacen-4-yl)carbamoyl]oxy}propanoate], the IC50 was < 10 nM.

As for `CCOC(=O)COC(=O)Nc1c(C)cccc1C` [Compound 8, Ethyl 2-{[(2,6-dimethylphenyl)carbamoyl]oxy}acetate], the IC50 fell in the range of 100 to 1000 nM.

On to `CCOC(=O)C(COC)OC(=O)Nc1c2c(cc3c1CCC3)CCC2` (stereo not shown) [Compound 6, Ethyl 2-{[(1,2,3,5,6,7-hexahydro-s-indacen-4-yl)carbamoyl]oxy}-3-methoxypropanoate], for which the IC50 lay in the range of 10 to 100 nM.
